Entries after “also recorded” stand apart in the source; their conditions may differ.

This is an account of results in paper PMC7801110 (Journal of Enzyme Inhibition and Medicinal Chemistry, 2021).

Series [1] has as its system insulin-degrading enzyme (IDE), His-Tag, rat, recombinant. Description: IDE (135 nM) in PBS (pH 7.4). Particulars: 37 °C, up to 180 min.
Series [2] has as its target T1, IDE, His-Tag, rat, recombinant (Rattus norvegicus, UniProt P35559).
T1 construct: His-Tag; purchased Sigma Aldrich; host or cells: Spodoptera frugiperda
T1 sequence (P35559 1-1019): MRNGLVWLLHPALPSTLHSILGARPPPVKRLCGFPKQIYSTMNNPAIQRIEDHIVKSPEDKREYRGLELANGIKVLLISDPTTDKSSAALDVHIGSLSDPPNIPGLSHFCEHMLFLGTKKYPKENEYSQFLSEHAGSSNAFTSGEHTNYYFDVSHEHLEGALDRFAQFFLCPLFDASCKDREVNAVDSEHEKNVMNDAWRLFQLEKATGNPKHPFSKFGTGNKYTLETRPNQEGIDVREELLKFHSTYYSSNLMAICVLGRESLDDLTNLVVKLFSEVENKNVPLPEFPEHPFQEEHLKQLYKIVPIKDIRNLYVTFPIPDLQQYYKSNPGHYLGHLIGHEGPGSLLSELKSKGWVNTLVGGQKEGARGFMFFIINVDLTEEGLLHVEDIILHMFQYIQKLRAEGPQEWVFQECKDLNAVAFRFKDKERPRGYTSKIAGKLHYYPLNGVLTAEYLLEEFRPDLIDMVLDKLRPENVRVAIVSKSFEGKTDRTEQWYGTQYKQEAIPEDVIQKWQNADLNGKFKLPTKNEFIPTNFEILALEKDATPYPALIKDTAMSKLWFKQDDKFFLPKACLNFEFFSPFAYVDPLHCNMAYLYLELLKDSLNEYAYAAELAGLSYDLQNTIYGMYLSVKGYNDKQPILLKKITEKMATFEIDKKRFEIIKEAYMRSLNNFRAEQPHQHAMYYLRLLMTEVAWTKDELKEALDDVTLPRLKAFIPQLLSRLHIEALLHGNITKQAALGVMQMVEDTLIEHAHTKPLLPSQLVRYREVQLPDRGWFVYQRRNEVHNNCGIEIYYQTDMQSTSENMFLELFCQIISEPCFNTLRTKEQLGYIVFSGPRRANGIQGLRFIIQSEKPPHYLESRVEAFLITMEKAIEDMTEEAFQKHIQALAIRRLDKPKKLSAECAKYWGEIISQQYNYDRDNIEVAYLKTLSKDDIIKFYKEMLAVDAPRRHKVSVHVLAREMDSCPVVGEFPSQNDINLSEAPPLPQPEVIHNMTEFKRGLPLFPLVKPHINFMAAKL
Description: HPLC-MS enzymatic assay: degradation of NPFF and NPAF by IDE. It is filed as in vitro ADME. Particulars: PBS pH 7.4, 37 °C, LC-ESI/MS; for cleavage of the peptide by IDE: stability with named protease IDE (135 nM), peptide 20 μM, aliquots 0-180 min, stopped with 1% TFA, repeated three times. As for the experimental part:
IDE, His-Tag, rat, recombinant, Spodoptera frugiperda, were purchased from Sigma Aldrich. […] Peptides were purified by the high-performance liquid chromatography (HPLC) and tested for their purity using ESI MS. Purity was above 95%. […] The liquid chromatography-electrospray ionisation mass spectrometry (LC-ESI/MS) experiments were carried out by using a LCQ Deca XP instrument (Thermo Electron Corporation, USA). All solutions were incubated in PBS (pH 7.4) at 37 °C. […] Samples were kept at 4 °C before HPLC-MS analysis. […] Separation of the generated fragments was carried out by the reversed-phase chromatography using a Jupiter® 5 µm C4 300 Å (LC Column 150 × 4.6 mm) column from Phenomenex at the flow rate of 250 μl/min. MS-MS experiments were used for final identification of the peptide fragments. All methodological details and a semiquantitative method were already described in our previous work, and the absolute intensities of the peaks were normalised to the total ion current[18]^,[24]^,[25]. The experiments were repeated three times to ensure reproducibility and estimate the error bars on the HPLC-MS results.

Series [3] has as its target T1, IDE, His-Tag, rat, recombinant. Put plainly: Insulin degradation by IDE in the presence of NPAF/NPFF (HPLC-MS). The format is biochemical. Particulars: PBS pH 7.4, 37 °C, LC-ESI/MS; for effect on insulin degradation by IDE after 3 h pre-incubation of the neuropeptide with IDE (NP fragments): NP 20 μM incubated 3 h with IDE 135 nM, then insulin 10 μM added, data not shown. How it is done: IDE, His-Tag, rat, recombinant, Spodoptera frugiperda, were purchased from Sigma Aldrich. NPAF, NPFF were manually synthesised by the solid-phase method using Fmoc chemistry. Peptides were purified by the high-performance liquid chromatography (HPLC) and tested for their purity using ESI MS. […] The liquid chromatography-electrospray ionisation mass spectrometry (LC-ESI/MS) experiments were carried out by using a LCQ Deca XP instrument (Thermo Electron Corporation, USA). All solutions were incubated in PBS (pH 7.4) at 37 °C. After incubations, sample aliquots at time 0; 10; 30; 45; 60 and 180 min were taken and a 10% solution of TFA was added to the aliquots in order to achieve a final TFA concentration of 1% in all the samples to stop the enzymatic reaction. Samples were kept at 4 °C before HPLC-MS analysis. […] Separation of the generated fragments was carried out by the reversed-phase chromatography using a Jupiter® 5 µm C4 300 Å (LC Column 150 × 4.6 mm) column from Phenomenex at the flow rate of 250 μl/min. MS-MS experiments were used for final identification of the peptide fragments. All methodological details and a semiquantitative method were already described in our previous work, and the absolute intensities of the peaks were normalised to the total ion current[18]^,[24]^,[25]. The experiments were repeated three times to ensure reproducibility and estimate the error bars on the HPLC-MS results.

As for “HAla-Gly-Glu-Gly-Leu-Ser-Ser-Pro-Phe-Trp-Ser-Leu-Ala-Ala-Pro-Gln-Arg-PheOH”, the cleaved bond result in series [1] is given as “Gly-Glu; also recorded: Ser-Leu, major, 10 min; also recorded: Leu-Ala, major, 10 min; also recorded: Gln-Arg, major, 10 min”.

In the case of “HAla-Gly-Glu-Gly-Leu-Ser-Ser-Pro-Phe-Trp-Ser-Leu-Ala-Ala-Pro-Gln-Arg-PheOH [NPAF, neuropeptide generated from the NPFF precursor (pro-NPFF(A)), manually synthesised by Fmoc solid-phase method]”, the “cleavage of the peptide by IDE” value in series [2] was “able to cleave”. Besides, the “effect of the neuropeptide on insulin degradation by IDE (insulin molecular peak decrease)” value in series [3] (NP 20 μM co-incubated with insulin 10 μM and IDE 135 nM, performed three times) is given as “activating effect”. The “effect on insulin degradation by IDE after 3 h pre-incubation of the neuropeptide with IDE (NP fragments)” value in series [3] is “no activation effect”. For the substance “HAla-Gly-Glu-Gly-Leu-Ser-Ser-Pro-Phe-Trp-Ser-Leu-Ala-Ala-Pro-GlnOH [cryptic peptide at 1617.8 m/z, cryptic peptide formed from NPAF by IDE, detected at m/z 1617.8]”, the “incubation time at which the relative intensity of the cryptic peptide reaches a maximum” value in series [2] (NPAF 20 μM with IDE 135 nM, intensities normalised to total ion current, abundance diminishes afterwards) is “about 30 min”. With HPhe-Leu-Phe-Gln-Pro-Gln-Arg-PheOH, the cleaved bond result in series [1] was “Gln-Arg, major, 10 min”.

For the substance “HPhe-Leu-Phe-Gln-Pro-Gln-Arg-PheOH [NPFF, neuropeptide generated from the NPFF precursor (pro-NPFF(A)), manually synthesised by Fmoc solid-phase method]”, in series [2], the “cleavage of the peptide by IDE” value is “able to cleave”. In series [3], the “effect on insulin degradation by IDE after 3 h pre-incubation of the neuropeptide with IDE (NP fragments)” value is “no activation effect”.
